Experimental data: patent US20120171126A1, “NOVEL [3,2-c] HETEROARYL STEROIDS AS GLUCOCORTICOID RECEPTOR AGONISTS COMPOSITIONS AND USES THEREOF” (priority 2009, published 2012)
Read-outs that look alike come from different tables or passages of the source.

Tested on: IL-8
Test: Glucocorticoid transrepression assay, IL-8 inhibition (TR)
Format: cell-based
Settings: Homo sapiens, NCl-H292 cells, TNFα 10 ng/ml; for Emax: read-out: IL-8 inhibition (TR) Emax % inhibition
Description: Human Lung epithelial cell line NCl-H292 cells were dissociated from stock flask using 0.05% trypsin/0.53 mM EDTA. Cells were suspended in complete medium and counted. Cells were plated in 96-well flat-bottom plates at 20K cells /well in 0.2 ml/well. Plates were incubated for 24-48 hours until cells were between 75-90% confluent. Medium was aspirated and replaced with medium containing various concentrations of steroids or antagonists. After 1 hour incubation at 37°, TNFα (10 ng/ml final concentration in 0.2 ml) was added and the cells incubated overnight. Control wells with and without TNF were included on each plate, as well as wells with TNF in addition to a maximum (10 μM) concentration of dexamethasone. The cell culture medium was sampled and IL-6 and IL-8 cytokine production was measured using the MSD Multi-Spot immunoassay.

| SMILES | IC50 (Table 2) | Emax (Table 2) | IC50 (Table 1) | Emax (Table 1) |
| --- | --- | --- | --- | --- |
| C[C@H](NC(=O)[C@@]1(OC(=O)c2ccco2)CCC2C3CCC4=Cc5c(cnn5-c5ccc(F)cc5)CC4(C)C3[C@@H](O)CC21C)c1cccc2ccccc12 (stereo partly shown) [Compound 15] | 0.06 to 20 nM | > 80% |  |  |
| CC12Cc3cnn(-c4ccccc4)c3C=C1CCC1C2[C@@H](O)CC2(C)C1CC[C@]2(O)C(=O)CSc1ccccn1 (stereo partly shown) [Compound 16] |  |  | 0.06 to 20 nM | > 80% |
| C[C@H](NC(=O)[C@@]1(OC(=O)c2ccco2)CCC2C3CCC4=Cc5c(cnn5-c5ccc(F)cc5)CC4(C)C3[C@@H](O)CC21C)c1ccccc1 (stereo partly shown) [Compound 16] | 0.06 to 20 nM | > 80% |  |  |
| CC12Cc3cnn(-c4ccc(F)cc4)c3C=C1CCC1C2[C@@H](O)CC2(C)C1CC[C@]2(OC(=O)c1ccco1)C(=O)NCCc1cnccn1 (stereo partly shown) [Compound 17] | 0.06 to 20 nM | > 80% |  |  |
| CC12Cc3cnn(-c4ccc(F)cc4)c3C=C1CCC1C2[C@@H](O)CC2(C)C1CC[C@]2(O)C(=O)Nc1nc2ccc(S(N)(=O)=O)cc2s1 (stereo partly shown) [Compound 18] | 0.06 to 20 nM | > 80% |  |  |
| CC12Cc3cnn(-c4ccc(F)cc4)c3C=C1CCC1C2[C@@H](O)CC2(C)C1CC[C@]2(O)C(=O)N[C@H](CO)CCc1ccccc1 (stereo partly shown) [Compound 19] | 0.06 to 20 nM | > 80% |  |  |
| CC12Cc3cnn(-c4ccccc4)c3C=C1CCC1C2[C@@H](O)CC2(C)C1CC[C@]2(O)C(=O)CSc1nc2ccccc2o1 (stereo partly shown) [Compound 19] |  |  | 401 to 1000 nM | < 60% |
| CC12Cc3cnn(-c4ccc(F)cc4)c3C=C1CCC1C2[C@@H](O)CC2(C)C1CC[C@]2(O)C(=O)NCc1nc2ccccc2o1 (stereo partly shown) [Compound 20] | 0.06 to 20 nM | > 80% |  |  |
| Cn1ncc2c1C=C1CCC3C([C@@H](O)CC4(C)C3CC[C@]4(O)C(=O)CSc3nc4ccccc4n3C)C1(C)C2 (stereo partly shown) [Compound 20] |  |  | 66 to 400 nM | 60 to 70% |
| Cn1c(NC(=O)[C@@]2(O)CCC3C4CCC5=Cc6c(cnn6-c6ccc(F)cc6)CC5(C)C4[C@@H](O)CC32C)nc2ccccc21 (stereo partly shown) [Compound 21] | 0.06 to 20 nM | > 80% |  |  |
| Cn1ncc2c1C=C1CCC3C([C@@H](O)CC4(C)C3CC[C@]4(O)C(=O)CSc3nc4ccccc4s3)C1(C)C2 (stereo partly shown) [Compound 21] |  |  |  | < 60% |
| CC12Cc3cnn(-c4ccc(F)cc4)c3C=C1CCC1C2[C@@H](O)CC2(C)C1CC[C@]2(O)C(=O)N[C@@H](CO)Cc1ccc2ccccc2c1 (stereo partly shown) [Compound 22] | 0.06 to 20 nM | > 80% |  |  |
| Cn1ncc2c1C=C1CCC3C([C@@H](O)CC4(C)C3CC[C@]4(O)C(=O)CSc3nc4ccccc4o3)C1(C)C2 (stereo partly shown) [Compound 22] |  |  | 66 to 400 nM | < 60% |
| CC(NC(=O)[C@@]1(O)CCC2C3CCC4=Cc5c(cnn5-c5ccc(F)cc5)CC4(C)C3[C@@H](O)CC21C)c1nc2ccccc2s1 (stereo partly shown) [Compound 23] | 0.06 to 20 nM | > 80% |  |  |
| Cn1ncc2c1C=C1CCC3C([C@@H](O)CC4(C)C3CC[C@]4(O)C(=O)CSc3ccc4ccccc4n3)C1(C)C2 (stereo partly shown) [Compound 23] |  |  | 66 to 400 nM | 60 to 70% |
| CC12Cc3cnn(-c4ccc(F)cc4)c3C=C1CCC1C2[C@@H](O)CC2(C)C1CC[C@]2(O)C(=O)N[C@H](CO)Cc1ccccc1 (stereo partly shown) [Compound 24] | 0.06 to 20 nM | > 80% |  |  |
| Cn1ncc2c1C=C1CCC3C([C@@H](O)CC4(C)C3CC[C@]4(O)C(=O)CSc3nc4ccccc4[nH]3)C1(C)C2 (stereo partly shown) [Compound 24] |  |  | 66 to 400 nM | 70 to 80% |
| COc1ccc2sc(SCC(=O)[C@@]3(O)CCC4C5CCC6=Cc7c(cnn7C)CC6(C)C5[C@@H](O)CC43C)nc2c1 (stereo partly shown) [Compound 25] |  |  |  | < 60% |
| Cn1ncc2c1C=C1CCC3C([C@@H](O)CC4(C)C3CC[C@]4(O)C(=O)CSc3ncccn3)C1(C)C2 (stereo partly shown) [Compound 26] |  |  |  | < 60% |
| Cn1ncc2c1C=C1CCC3C([C@@H](O)CC4(C)C3CC[C@]4(O)C(=O)CSc3nc4cccnc4s3)C1(C)C2 (stereo partly shown) [Compound 28] |  |  |  | < 60% |
| Cn1ncc2c1C=C1CCC3C([C@@H](O)CC4(C)C3CC[C@]4(O)C(=O)CSc3nc4ncccc4o3)C1(C)C2 (stereo partly shown) [Compound 29] |  |  | 401 to 1000 nM | < 60% |
| Cn1ncc2c1C=C1CCC3C([C@@H](O)CC4(C)C3CC[C@]4(O)C(=O)CSc3cnc4ccccc4n3)C1(C)C2 (stereo partly shown) [Compound 30] |  |  | 66 to 400 nM | 60 to 70% |
| Cc1ccnc(SCC(=O)[C@@]2(O)CCC3C4CCC5=Cc6c(cnn6C)CC5(C)C4[C@@H](O)CC32C)n1 (stereo partly shown) [Compound 31] |  |  |  | < 60% |
| Cn1ncc2c1C=C1CCC3C([C@@H](O)CC4(C)C3CC[C@]4(O)C(=O)CSc3ccccn3)C1(C)C2 (stereo partly shown) [Compound 32] |  |  |  | < 60% |
| Cc1cccc(SCC(=O)[C@@]2(O)CCC3C4CCC5=Cc6c(cnn6C)CC5(C)C4[C@@H](O)CC32C)n1 (stereo partly shown) [Compound 33] |  |  | 66 to 400 nM | < 60% |
| Cn1c(SCC(=O)[C@@]2(O)CCC3C4CCC5=Cc6c(cnn6-c6ccccn6)CC5(C)C4[C@@H](O)CC32C)nc2ccccc21 (stereo partly shown) [Compound 34] |  |  | 66 to 400 nM | 60 to 70% |

| SMILES | IC50 (Table 2) | Emax (Table 2) | IC50 (Table 1) | Emax (Table 1) |
| --- | --- | --- | --- | --- |
| CC12Cc3cnn(-c4ccccn4)c3C=C1CCC1C2[C@@H](O)CC2(C)C1CC[C@]2(O)C(=O)CSc1nc2ccccc2s1 (stereo partly shown) [Compound 35] |  |  | 66 to 400 nM | 60 to 70% |
| CC12Cc3cnn(-c4ccccn4)c3C=C1CCC1C2[C@@H](O)CC2(C)C1CC[C@]2(O)C(=O)CSc1nc2ccccc2o1 (stereo partly shown) [Compound 36] |  |  | 0.06 to 20 nM | > 80% |
| CC12Cc3cnn(-c4ccccn4)c3C=C1CCC1C2[C@@H](O)CC2(C)C1CC[C@]2(O)C(=O)CSc1ccc2ccccc2n1 (stereo partly shown) [Compound 37] |  |  |  | < 60% |
| CC12Cc3cnn(-c4ccccn4)c3C=C1CCC1C2[C@@H](O)CC2(C)C1CC[C@]2(O)C(=O)CSc1nc2ccccc2[nH]1 (stereo partly shown) [Compound 38] |  |  | 401 to 1000 nM | 60 to 70% |
| COc1ccc2sc(SCC(=O)[C@@]3(O)CCC4C5CCC6=Cc7c(cnn7-c7ccccn7)CC6(C)C5[C@@H](O)CC43C)nc2c1 (stereo partly shown) [Compound 39] |  |  |  | < 60% |
| CC12Cc3cnn(-c4ccccn4)c3C=C1CCC1C2[C@@H](O)CC2(C)C1CC[C@]2(O)C(=O)CSc1ncccn1 (stereo partly shown) [Compound 40] |  |  | 66 to 400 nM | 60 to 70% |
| Cn1cnnc1SCC(=O)[C@@]1(O)CCC2C3CCC4=Cc5c(cnn5-c5ccccn5)CC4(C)C3[C@@H](O)CC21C (stereo partly shown) [Compound 41] |  |  |  | < 60% |
| CC12Cc3cnn(-c4ccccn4)c3C=C1CCC1C2[C@@H](O)CC2(C)C1CC[C@]2(O)C(=O)CSc1nc2cccnc2s1 (stereo partly shown) [Compound 42] |  |  | 66 to 400 nM | 70 to 80% |
| CC12Cc3cnn(-c4ccccn4)c3C=C1CCC1C2[C@@H](O)CC2(C)C1CC[C@]2(O)C(=O)CSc1nc2ncccc2o1 (stereo partly shown) [Compound 43] |  |  | 21 to 65 nM | 70 to 80% |
| CC12Cc3cnn(-c4ccccn4)c3C=C1CCC1C2[C@@H](O)CC2(C)C1CC[C@]2(O)C(=O)CSc1cnc2ccccc2n1 (stereo partly shown) [Compound 44] |  |  | 401 to 1000 nM | < 60% |
| Cc1ccnc(SCC(=O)[C@@]2(O)CCC3C4CCC5=Cc6c(cnn6-c6ccccn6)CC5(C)C4[C@@H](O)CC32C)n1 (stereo partly shown) [Compound 45] |  |  | 21 to 65 nM | > 80% |
| CC12Cc3cnn(-c4ccccn4)c3C=C1CCC1C2[C@@H](O)CC2(C)C1CC[C@]2(O)C(=O)CSc1ccccn1 (stereo partly shown) [Compound 46] |  |  | 66 to 400 nM | 70 to 80% |
| Cc1cccc(SCC(=O)[C@@]2(O)CCC3C4CCC5=Cc6c(cnn6-c6ccccn6)CC5(C)C4[C@@H](O)CC32C)n1 (stereo partly shown) [Compound 47] |  |  | 66 to 400 nM | > 80% |
| Cn1c(SCC(=O)[C@@]2(O)CCC3C4CCC5=Cc6c(cnn6CCC#N)CC5(C)C4[C@@H](O)CC32C)nc2ccccc21 (stereo partly shown) [Compound 48] |  |  | 66 to 400 nM | < 60% |
| CC12Cc3cnn(CCC#N)c3C=C1CCC1C2[C@@H](O)CC2(C)C1CC[C@]2(O)C(=O)CSc1nc2ccccc2s1 (stereo partly shown) [Compound 49] |  |  |  | < 60% |
| CC12Cc3cnn(CCC#N)c3C=C1CCC1C2[C@@H](O)CC2(C)C1CC[C@]2(O)C(=O)CSc1nc2ccccc2o1 (stereo partly shown) [Compound 50] |  |  | 66 to 400 nM | 70 to 80% |
| CC12Cc3cnn(CCC#N)c3C=C1CCC1C2[C@@H](O)CC2(C)C1CC[C@]2(O)C(=O)CSc1ccc2ccccc2n1 (stereo partly shown) [Compound 51] |  |  |  | < 60% |
| CC12Cc3cnn(CCC#N)c3C=C1CCC1C2[C@@H](O)CC2(C)C1CC[C@]2(O)C(=O)CSc1nc2ccccc2[nH]1 (stereo partly shown) [Compound 52] |  |  | 401 to 1000 nM | < 60% |
| CC12Cc3cnn(CCC#N)c3C=C1CCC1C2[C@@H](O)CC2(C)C1CC[C@]2(O)C(=O)CSc1ncccn1 (stereo partly shown) [Compound 54] |  |  | 401 to 1000 nM | < 60% |
| Cn1cnnc1SCC(=O)[C@@]1(O)CCC2C3CCC4=Cc5c(cnn5CCC#N)CC4(C)C3[C@@H](O)CC21C (stereo partly shown) [Compound 55] |  |  |  | < 60% |
| CC12Cc3cnn(CCC#N)c3C=C1CCC1C2[C@@H](O)CC2(C)C1CC[C@]2(O)C(=O)CSc1nc2cccnc2s1 (stereo partly shown) [Compound 56] |  |  |  | < 60% |
| CC12Cc3cnn(CCC#N)c3C=C1CCC1C2[C@@H](O)CC2(C)C1CC[C@]2(O)C(=O)CSc1cnc2ccccc2n1 (stereo partly shown) [Compound 58] |  |  |  | < 60% |
| Cc1ccnc(SCC(=O)[C@@]2(O)CCC3C4CCC5=Cc6c(cnn6CCC#N)CC5(C)C4[C@@H](O)CC32C)n1 (stereo partly shown) [Compound 59] |  |  | 66 to 400 nM | 60 to 70% |
| Cc1cccc(SCC(=O)[C@@]2(O)CCC3C4CCC5=Cc6c(cnn6CCC#N)CC5(C)C4[C@@H](O)CC32C)n1 (stereo partly shown) [Compound 61] |  |  | 66 to 400 nM | 70 to 80% |
| CC12Cc3cnn(C(C)(C)C)c3C=C1CCC1C2[C@@H](O)CC2(C)C1CC[C@]2(O)C(=O)CSc1nc2ccccc2s1 (stereo partly shown) [Compound 62] |  |  |  | < 60% |
| Cn1c(SCC(=O)[C@@]2(O)CCC3C4CCC5=Cc6c(cnn6C(C)(C)C)CC5(C)C4[C@@H](O)CC32C)nc2ccccc21 (stereo partly shown) [Compound 63] |  |  |  | < 60% |
